Laboratory results taken from patent publication US6753345B2, “7-hexanolytaxol and methods for preparing the same” (Hauser, Inc., priority 1998, dated 2004).

Assays:
[1] = test system: M14; test: SRB cytotoxicity screening assay (Melanoma)
[2] = test system: TK-10; test: SRB cytotoxicity screening assay (Renal Cancer)
[3] = test system: EKVX; test: SRB cytotoxicity screening assay (Non-Small Cell Lung Cancer); details: Homo sapiens, EKVX, 48 h, read-out: Log10 LC50 (converted)
[4] = test system: RXF-393; test: SRB cytotoxicity screening assay (Renal Cancer)
[5] = test system: HCC-2998; test: SRB cytotoxicity screening assay (Colon Cancer); details: HCC-2998 (Colon Cancer); PG=0; 48 hour incubation
[6] = test system: MOLT-4; test: SRB cytotoxicity screening assay (Leukemia)
[7] = test system: HCT-116; test: SRB cytotoxicity screening assay (Colon Cancer); details: HCT-116 (Colon Cancer); PG=0; 48 hour incubation
[8] = test system: NCI-H322M; test: cells; details: Homo sapiens, 48 h
[9] = test system: UACC-257; test: SRB cytotoxicity screening assay (Melanoma)
[10] = test system: K-562; test: SRB cytotoxicity screening assay (Leukemia)
[11] = test system: OVCAR-5; test: SRB cytotoxicity screening assay (Ovarian)
[12] = test system: SR; test: SRB cytotoxicity screening assay (Leukemia)
[13] = test system: MCF7/ADR-RES; test: SRB cytotoxicity screening assay (Breast Cancer)
[14] = test system: HT29; test: SRB cytotoxicity screening assay (Colon Cancer); details: Homo sapiens, HT-29, 48 h, read-out: Log10 LC50 (converted)
[15] = test system: HL-60(TB); details: HL-60(TB) (Leukemia); PG=0; 48 hour incubation
[16] = test system: SNB-19; test: SRB cytotoxicity screening assay (CNS Cancer)
[17] = test system: KM12; test: SRB cytotoxicity screening assay (Colon Cancer)
[18] = test system: MCF7; test: SRB cytotoxicity screening assay (Breast Cancer); details: Homo sapiens, MCF7, 48 h
[19] = test system: NCI-H322M; details: NCI-H322M (Non-Small Cell Lung Cancer); PG=0; 48 hour incubation
[20] = test system: SK-MEL-2; test: SRB cytotoxicity screening assay (Melanoma); details: Homo sapiens, SK-MEL-2, 48 h, read-out: Log10 GI50 (converted)
[21] = test system: MALME-3M; test: SRB cytotoxicity screening assay (Melanoma); details: MALME-3M (Melanoma); PG=0; 48 hour incubation
[22] = test system: SW-620; test: SRB cytotoxicity screening assay (Colon Cancer)
[23] = test system: RPMI-8226; test: SRB cytotoxicity screening assay (Leukemia)
[24] = test system: LOX-IMVI; details: LOX-IMVI (Melanoma); PG=0; 48 hour incubation
[25] = read-out: Log10 GI50 (converted)
[26] = read-out: Log10 LC50 (converted)

What does the source list for `CC(=O)O[C@H]1C(=O)[C@@]2(C)[C@H]([C@H](OC(=O)c3ccccc3)[C@]3(O)C[C@H](OC(=O)[C@H](O)[C@@H](NC(=O)c4ccccc4)c4ccccc4)C(C)=C1C3(C)C)[C@]1(OC(C)=O)CO[C@@H]1C[C@@H]2O` [Paclitaxel, paclitaxel, reference compound]?
GI50 ([1]; Homo sapiens, M14, 48 h, read-out: Log10 GI50 (converted)): 0.00186 nM; Log10 TGI ([1]; M14 (Melanoma), PG=0, 48 hour incubation): −4.62 molar; GI50 ([2]; Homo sapiens, TK-10, 48 h, read-out: Log10 GI50 (converted)): 12.9 nM; CC50 ([2]; Homo sapiens, TK-10, 48 h, read-out: Log10 LC50 (converted)): > 100000 nM; Log10 TGI ([2]; TK-10 (Renal Cancer), PG=0, 48 hour incubation): >−4.00 molar; CC50 [3]: > 100000 nM; GI50 ([4]; Homo sapiens, RXF 393, 48 h, read-out: Log10 GI50 (converted)): 4.79 nM; CC50 ([4]; Homo sapiens, RXF 393, 48 h, read-out: Log10 LC50 (converted)): 35500 nM; Log10 TGI ([4]; RXF-393 (Renal Cancer), PG=0, 48 hour incubation): −4.90 molar; Log10 TGI [5]: −4.77 molar; GI50 ([6]; Homo sapiens, MOLT-4, 48 h, read-out: Log10 GI50 (converted)): 0.00851 nM; CC50 ([6]; Homo sapiens, MOLT-4, 48 h, read-out: Log10 LC50 (converted)): > 100000 nM; Log10 TGI ([6]; MOLT-4 (Leukemia), PG=0, 48 hour incubation): >−4.00 molar; Log10 TGI [7]: −4.82 molar; GI50 [8, 25]: 0.0759 nM; CC50 [8, 26]: > 100000 nM; GI50 ([9]; Homo sapiens, UACC-257, 48 h, read-out: Log10 GI50 (converted)): 0.0501 nM; CC50 ([9]; Homo sapiens, UACC-257, 48 h, read-out: Log10 LC50 (converted)): 93300 nM; Log10 TGI ([9]; UACC-257 (Melanoma), PG=0, 48 hour incubation): −4.52 molar; GI50 ([10]; Homo sapiens, K562, 48 h, read-out: Log10 GI50 (converted)): 0.0148 nM; CC50 ([10]; Homo sapiens, K562, 48 h, read-out: Log10 LC50 (converted)): > 100000 nM; Log10 TGI ([10]; K-562 (Leukemia), PG=0, 48 hour incubation): >−4.00 molar; GI50 ([11]; Homo sapiens, OVCAR-5, 48 h, read-out: Log10 GI50 (converted)): 0.417 nM; CC50 ([11]; Homo sapiens, OVCAR-5, 48 h, read-out: Log10 LC50 (converted)): > 100000 nM; Log10 TGI ([11]; OVCAR-5 (Ovarian), PG=0, 48 hour incubation): −4.92 molar; GI50 ([12]; Homo sapiens, SR, 48 h, read-out: Log10 GI50 (converted)): 4.57 nM; CC50 ([12]; Homo sapiens, SR, 48 h, read-out: Log10 LC50 (converted)): > 100000 nM; Log10 TGI ([12]; SR (Leukemia), PG=0, 48 hour incubation): >−4.00 molar; GI50 ([13]; Homo sapiens, MCF7, 48 h, read-out: Log10 GI50 (converted)): 3.31 nM; CC50 ([13]; Homo sapiens, MCF7, 48 h, read-out: Log10 LC50 (converted)): > 100000 nM; Log10 TGI ([13]; MCF7/ADR-RES (Breast Cancer), PG=0, 48 hour incubation): >−4.00 molar; CC50 [14]: 33100 nM; Log10 TGI [15]: >−4.53 molar; GI50 ([16]; Homo sapiens, SNB-19, 48 h, read-out: Log10 GI50 (converted)): 1.05 nM; CC50 ([16]; Homo sapiens, SNB-19, 48 h, read-out: Log10 LC50 (converted)): > 100000 nM; Log10 TGI ([16]; SNB-19 (CNS Cancer), PG=0, 48 hour incubation): >−4.00 molar; GI50 ([17]; Homo sapiens, KM12, 48 h, read-out: Log10 GI50 (converted)): 0.00372 nM; Log10 TGI ([17]; KM12 (Colon Cancer), PG=0, 48 hour incubation): −4.36 molar; GI50 [18, 25]: 0.00204 nM; CC50 [18, 26]: > 100000 nM; Log10 TGI [19]: −4.46 molar; GI50 [20]: 0.295 nM; Log10 TGI [21]: −4.46 molar; GI50 ([22]; Homo sapiens, SW-620, 48 h, read-out: Log10 GI50 (converted)): 0.00251 nM; Log10 TGI ([22]; SW-620 (Colon Cancer), PG=0, 48 hour incubation): >−4.00 molar; CC50 ([23]; Homo sapiens, RPMI-8226, 48 h, read-out: Log10 LC50 (converted)): > 100000 nM; Log10 TGI ([23]; RPMI-8226 (Leukemia), PG=0, 48 hour incubation): >−4.00 molar; Log10 TGI [24]: −4.65 molar
